The test system of one data set is BL‐2 cells. Nature of the data set: Viability of BL-2 cells. In kind it is cell-based. As to conditions: read-out: IC50 BL‐2 cells; human Burkitt's lymphoma cells, 48 h, MTT.
In a further data set the test system is A2780 cells. As to the kind of experiment: Viability of A2780 cells. The class given is cell-based. The following applies: read-out: IC50 A2780 cells; human ovarian cancer cells, 48 h, MTT.
The nature of data set [1]: Redox potentials by cyclic voltammetry and differential pulse voltammetry. In kind it is physicochemical. As to conditions: redox potential versus ferrocene/ferrocenium (FcH/FcH+); acetonitrile, 23 °C.
Data set [2] in a line: N-octanol/water partition coefficient. In kind it is physicochemical. As to conditions: RP-TLC, MOPS pH 7.4/acetonitrile.

Experimental findings from PMC9324933 (Chemistry (Weinheim an Der Bergstrasse, Germany), 2022) are described below.

A value given as a limit tells only on which side of the number the result lay.

The term IC50 denotes the concentration that gives 50% inhibition. The LogP is a log measure of how a compound divides between an organic and an aqueous phase. The low end stands for a more hydrophilic compound, the high end for a more lipophilic compound. In the case of `[Fe+2].c1cc[cH-]c1.c1cc[cH-]c1` [FcH, ferrocene], the IC50 with BL‐2 cells and in the data set with A2780 cells was > 50 µM each time. Besides, in data set [1], the E1/2 is on record as 0 mV. Also, the LogP in data set [2] stood at 3.40.
